Measured values as given in patent US20140357713A1, “ANTIMICROBIAL COMPOUNDS AND METHODS OF USE” (NexMed Holdings, Inc., priority 2012, published 2014).
Counter-ions that a name gives are not always drawn. Like-named read-outs stand apart in the source and are kept apart here.

Tests used:
Assay type in all cases: cell-based
Staphylococcus aureus = experiment: Extended time kill study, Example 34 (0 to 24 h)
Procedure, shortened: (§1)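 Strain suspensions prepared as for MIC testing were mixed 1:1 with compound solution at higher multiples of MIC. Samples taken over 0 to 24 h were diluted in test medium and plated on agar, and colonies were counted after 24–48 h incubation.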

Escherichia coli = experiment: Extended time kill study, Example 34 (0 to 24 h)
Procedure, shortened: as §1

[1] = system: Candida albicans (ATCC 90029); experiment: Minimum inhibitory concentration (MIC) assay, Example 33; conditions: Candida albicans
Procedure, shortened: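 Broth microdilution per CLSI guidelines in RPMI 1640; inoculum set to OD530 0.08–0.13, diluted 1:50 then 1:20 to 2× strength and mixed 1:2 with 2-fold serial compound dilutions. Incubated at 35° C; MIC read per CLSI.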

[2] = system: Escherichia coli (ATCC 25922); experiment: Time kill study, Example 33 (0 to 5 min); conditions: 1×MIC
Procedure, shortened: (§2)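 Per CLSI guidelines, strain suspensions were mixed 1:1 by volume with compound solution; samples taken at 0 min, 30 sec, 1 min and 5 min were diluted and plated on agar. Colonies were counted after 24 to 48 hrs incubation and viable counts reported as Log10 CFU/mL.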

[3] = system: Pseudomonas aeruginosa (ATCC 27853); experiment: Time kill study, Example 33 (0 to 5 min); conditions: 1×MIC
Procedure, shortened: as §2

[4] = system: Candida albicans (ATCC 90029); experiment: Time kill study, Example 33 (0 to 5 min); conditions: 1×MIC
Procedure, shortened: as §2

[5] = system: Staphylococcus aureus (ATCC 29213); experiment: Time kill study, Example 33 (0 to 5 min); conditions: 1×MIC
Procedure, shortened: as §2

[6] = 1 min, listed as Nex-88, hydrochloride

CCCCCCCCCCCCOC(=O)C(C)N(C)C (stereo not shown) [Nex-05, Dodecyl 2-(dimethylamino)propanoate hydrochloride]
Viable counts, Staphylococcus aureus time kill study (Staphylococcus aureus; 1 × MIC, 1 h): <3 Log10 CFU/mL | Viable counts, Staphylococcus aureus time kill study (Staphylococcus aureus; 1 × MIC, 2 h): <3 Log10 CFU/mL | Viable counts, Staphylococcus aureus time kill study (Staphylococcus aureus; 1 × MIC, 4 h): <3 Log10 CFU/mL | Viable counts, Staphylococcus aureus time kill study (Staphylococcus aureus; 1 × MIC, 6 h): <3 Log10 CFU/mL | Viable counts, Staphylococcus aureus time kill study (Staphylococcus aureus; 1 × MIC, 24 h): <1 Log10 CFU/mL | Viable counts, Staphylococcus aureus time kill study (Staphylococcus aureus; 1×MIC, time 0): 6.24 Log10 CFU/mL | Viable counts, Staphylococcus aureus time kill study (Staphylococcus aureus; 2 × MIC, 1 h): <3 Log10 CFU/mL | Viable counts, Staphylococcus aureus time kill study (Staphylococcus aureus; 2 × MIC, 2 h): <3 Log10 CFU/mL | Viable counts, Staphylococcus aureus time kill study (Staphylococcus aureus; 2 × MIC, 4 h): <3 Log10 CFU/mL | Viable counts, Staphylococcus aureus time kill study (Staphylococcus aureus; 2 × MIC, 6 h): <3 Log10 CFU/mL | Viable counts, Staphylococcus aureus time kill study (Staphylococcus aureus; 2 × MIC, 24 h): <1 Log10 CFU/mL | Viable counts, Staphylococcus aureus time kill study (Staphylococcus aureus; 2 × MIC, time 0): 6.25 Log10 CFU/mL | Viable counts, Staphylococcus aureus time kill study (Staphylococcus aureus; 4 × MIC, 1 h): <3 Log10 CFU/mL | Viable counts, Staphylococcus aureus time kill study (Staphylococcus aureus; 4 × MIC, 2 h): <3 Log10 CFU/mL | Viable counts, Staphylococcus aureus time kill study (Staphylococcus aureus; 4 × MIC, 4 h): <3 Log10 CFU/mL | Viable counts, Staphylococcus aureus time kill study (Staphylococcus aureus; 4 × MIC, 6 h): <3 Log10 CFU/mL | Viable counts, Staphylococcus aureus time kill study (Staphylococcus aureus; 4 × MIC, 24 h): <1 Log10 CFU/mL | Viable counts, Staphylococcus aureus time kill study (Staphylococcus aureus; 4 × MIC, time 0): 6.23 Log10 CFU/mL | Viable counts, Escherichia coli time kill study (Escherichia coli; 1 × MIC, 1 h): <1 Log10 CFU/mL | Viable counts, Escherichia coli time kill study (Escherichia coli; 1 × MIC, 2 h): <1 Log10 CFU/mL | Viable counts, Escherichia coli time kill study (Escherichia coli; 1 × MIC, 4 h): <1 Log10 CFU/mL | Viable counts, Escherichia coli time kill study (Escherichia coli; 1 × MIC, 6 h): <1 Log10 CFU/mL | Viable counts, Escherichia coli time kill study (Escherichia coli; 1 × MIC, 24 h): <1 Log10 CFU/mL | Viable counts, Escherichia coli time kill study (Escherichia coli; 1×MIC, time 0): 5.10 Log10 CFU/mL | Viable counts, Escherichia coli time kill study (Escherichia coli; 2 × MIC, 1 h): <1 Log10 CFU/mL | Viable counts, Escherichia coli time kill study (Escherichia coli; 2 × MIC, 2 h): <1 Log10 CFU/mL | Viable counts, Escherichia coli time kill study (Escherichia coli; 2 × MIC, 4 h): <1 Log10 CFU/mL | Viable counts, Escherichia coli time kill study (Escherichia coli; 2 × MIC, 6 h): <1 Log10 CFU/mL | Viable counts, Escherichia coli time kill study (Escherichia coli; 2 × MIC, 24 h): <1 Log10 CFU/mL | Viable counts, Escherichia coli time kill study (Escherichia coli; 2 × MIC, time 0): 5.16 Log10 CFU/mL | Viable counts, Escherichia coli time kill study (Escherichia coli; 4 × MIC, 1 h): <1 Log10 CFU/mL | Viable counts, Escherichia coli time kill study (Escherichia coli; 4 × MIC, 2 h): <1 Log10 CFU/mL | Viable counts, Escherichia coli time kill study (Escherichia coli; 4 × MIC, 4 h): <1 Log10 CFU/mL | Viable counts, Escherichia coli time kill study (Escherichia coli; 4 × MIC, 6 h): <1 Log10 CFU/mL | Viable counts, Escherichia coli time kill study (Escherichia coli; 4 × MIC, 24 h): <1 Log10 CFU/mL | Viable counts, Escherichia coli time kill study (Escherichia coli; 4 × MIC, time 0): 5.21 Log10 CFU/mL | MIC ([1]; ATCC90029, Table 19 summary): > 12500 µg/mL | MIC ([1]; ATCC90029, read-out: MIC Candida albicans, n = 1): > 12500 µg/mL | MIC ([1]; ATCC90029, read-out: MIC Candida albicans, n = 2): > 12500 µg/mL | Viable counts, Escherichia coli time kill study ([2]; 0.5 min, hydrochloride): <4.0 Log10 CFU/mL | Viable counts, Escherichia coli time kill study ([2]; 0.5 min, listed as Nex-88, hydrochloride): <4.0 Log10 CFU/mL | Viable counts, Escherichia coli time kill study [2, 6]: <3.70 Log10 CFU/mL | Viable counts, Escherichia coli time kill study ([2]; 5 min, listed as Nex-88, hydrochloride): <3.52 Log10 CFU/mL | Viable counts, Pseudomonas aeruginosa time kill study [3, 6]: <3.70 Log10 CFU/mL | Viable counts, Pseudomonas aeruginosa time kill study ([3]; 5 min): <3.52 Log10 CFU/mL

CCCCCCCCCCCCOC(=O)C(C)NCCN(CC)CC.Cl (stereo not shown) [Nex-62, Dodecyl 2-((2-(diethylamino)ethyl)amino)propanoate dihydrochloride]
Viable counts, Staphylococcus aureus time kill study (Staphylococcus aureus; 1 × MIC, 1 h): 6.00 Log10 CFU/mL | Viable counts, Staphylococcus aureus time kill study (Staphylococcus aureus; 1 × MIC, 2 h): 5.66 Log10 CFU/mL | Viable counts, Staphylococcus aureus time kill study (Staphylococcus aureus; 1 × MIC, 4 h): 4.70 Log10 CFU/mL | Viable counts, Staphylococcus aureus time kill study (Staphylococcus aureus; 1 × MIC, 6 h): 4.48 Log10 CFU/mL | Viable counts, Staphylococcus aureus time kill study (Staphylococcus aureus; 1 × MIC, 24 h): <1 Log10 CFU/mL | Viable counts, Staphylococcus aureus time kill study (Staphylococcus aureus; 1×MIC, time 0): 6.23 Log10 CFU/mL | Viable counts, Staphylococcus aureus time kill study (Staphylococcus aureus; 2 × MIC, 1 h): 5.30 Log10 CFU/mL | Viable counts, Staphylococcus aureus time kill study (Staphylococcus aureus; 2 × MIC, 2 h): <3 Log10 CFU/mL | Viable counts, Staphylococcus aureus time kill study (Staphylococcus aureus; 2 × MIC, 4 h): <3 Log10 CFU/mL | Viable counts, Staphylococcus aureus time kill study (Staphylococcus aureus; 2 × MIC, 6 h): <3 Log10 CFU/mL | Viable counts, Staphylococcus aureus time kill study (Staphylococcus aureus; 2 × MIC, 24 h): <1 Log10 CFU/mL | Viable counts, Staphylococcus aureus time kill study (Staphylococcus aureus; 2 × MIC, time 0): 6.25 Log10 CFU/mL | Viable counts, Staphylococcus aureus time kill study (Staphylococcus aureus; 4 × MIC, 1 h): 5.30 Log10 CFU/mL | Viable counts, Staphylococcus aureus time kill study (Staphylococcus aureus; 4 × MIC, 2 h): <3 Log10 CFU/mL | Viable counts, Staphylococcus aureus time kill study (Staphylococcus aureus; 4 × MIC, 4 h): <3 Log10 CFU/mL | Viable counts, Staphylococcus aureus time kill study (Staphylococcus aureus; 4 × MIC, 6 h): <3 Log10 CFU/mL | Viable counts, Staphylococcus aureus time kill study (Staphylococcus aureus; 4 × MIC, 24 h): <1 Log10 CFU/mL | Viable counts, Staphylococcus aureus time kill study (Staphylococcus aureus; 4 × MIC, time 0): 6.20 Log10 CFU/mL | Viable counts, Escherichia coli time kill study (Escherichia coli; 1 × MIC, 1 h): 1 Log10 CFU/mL | Viable counts, Escherichia coli time kill study (Escherichia coli; 1 × MIC, 2 h): 1 Log10 CFU/mL | Viable counts, Escherichia coli time kill study (Escherichia coli; 1 × MIC, 4 h): <1 Log10 CFU/mL | Viable counts, Escherichia coli time kill study (Escherichia coli; 1 × MIC, 6 h): 2.18 Log10 CFU/mL | Viable counts, Escherichia coli time kill study (Escherichia coli; 1 × MIC, 24 h): 7.99 Log10 CFU/mL | Viable counts, Escherichia coli time kill study (Escherichia coli; 1×MIC, time 0): 5.06 Log10 CFU/mL | Viable counts, Escherichia coli time kill study (Escherichia coli; 2 × MIC, 1 h): <1 Log10 CFU/mL | Viable counts, Escherichia coli time kill study (Escherichia coli; 2 × MIC, 2 h): <1 Log10 CFU/mL | Viable counts, Escherichia coli time kill study (Escherichia coli; 2 × MIC, 4 h): <1 Log10 CFU/mL | Viable counts, Escherichia coli time kill study (Escherichia coli; 2 × MIC, 6 h): <1 Log10 CFU/mL | Viable counts, Escherichia coli time kill study (Escherichia coli; 2 × MIC, 24 h): <1 Log10 CFU/mL | Viable counts, Escherichia coli time kill study (Escherichia coli; 2 × MIC, time 0): 5.18 Log10 CFU/mL | Viable counts, Escherichia coli time kill study (Escherichia coli; 4 × MIC, 1 h): <1 Log10 CFU/mL | Viable counts, Escherichia coli time kill study (Escherichia coli; 4 × MIC, 2 h): <1 Log10 CFU/mL | Viable counts, Escherichia coli time kill study (Escherichia coli; 4 × MIC, 4 h): <1 Log10 CFU/mL | Viable counts, Escherichia coli time kill study (Escherichia coli; 4 × MIC, 6 h): <1 Log10 CFU/mL | Viable counts, Escherichia coli time kill study (Escherichia coli; 4 × MIC, 24 h): <1 Log10 CFU/mL | Viable counts, Escherichia coli time kill study (Escherichia coli; 4 × MIC, time 0): 5.12 Log10 CFU/mL | MIC ([1]; ATCC90029, Table 19 summary, read-out: MIC): 6.25 µg/mL | MIC ([1]; ATCC90029, n = 1, read-out: MIC Candida albicans): 6.25 µg/mL | MIC ([1]; ATCC90029, n = 2, read-out: MIC Candida albicans): 6.25 µg/mL | Viable counts, Candida albicans time kill study ([4]; 0.5 min): 5.37 Log10 CFU/mL | Viable counts, Candida albicans time kill study ([4]; 1 min): 5.18 Log10 CFU/mL | Viable counts, Candida albicans time kill study ([4]; 5 min): 5.16 Log10 CFU/mL | Viable counts, Candida albicans time kill study ([4]; time 0): 5.12 Log10 CFU/mL | Viable counts, Escherichia coli time kill study ([2]; 0.5 min): 4.78 Log10 CFU/mL | Viable counts, Escherichia coli time kill study ([2]; 1 min): 5.02 Log10 CFU/mL | Viable counts, Escherichia coli time kill study ([2]; 5 min): 3.82 Log10 CFU/mL | Viable counts, Escherichia coli time kill study ([2]; time 0): 4.82 Log10 CFU/mL | Viable counts, Pseudomonas aeruginosa time kill study ([3]; 0.5 min): 4 Log10 CFU/mL | Viable counts, Pseudomonas aeruginosa time kill study ([3]; 1 min): <3.70 Log10 CFU/mL | Viable counts, Pseudomonas aeruginosa time kill study ([3]; 5 min): <3.52 Log10 CFU/mL | Viable counts, Pseudomonas aeruginosa time kill study ([3]; time 0): 5.52 Log10 CFU/mL | Viable counts, Staphylococcus aureus time kill study ([5]; 0.5 min): 6.32 Log10 CFU/mL | Viable counts, Staphylococcus aureus time kill study ([5]; 1 min): 6.35 Log10 CFU/mL | Viable counts, Staphylococcus aureus time kill study ([5]; 5 min): 6.31 Log10 CFU/mL | Viable counts, Staphylococcus aureus time kill study ([5]; time 0): 6.34 Log10 CFU/mL
